Reference: patent US20220409643A1, “ROR Gamma T Inhibitors and Topical Uses Thereof” (Dermira, inc., priority 2019, published 2022)

Tested on: IL17A
Assay: skin Resident Immune Cell Assay (sRICA), Th17 model, IL17A protein in media
Assay type: cell-based
Details: 100 uM solution in 1% DMSO/OD applied topically to human skin; media collected 24 hours after Th17 activation
Experimental: A skin Resident Immune Cell Assay (sRICA) was used to test compounds for reduction of IL-17A protein upregulation in the Th17 sRICA model. In this model, human surgical skin waste was cultured in a transwell system, with the dermis in contact with cell culture media and the stratum corneum exposed to air. To perform the assay, each human skin sample was defatted and dermatomed to 750μm. Next, 8 mm punch biopsies were obtained and placed in a membrane transwell. The transwells were inserted into culture wells with complete media, and a cocktail of cytokines and antibodies were added to promote skin resident immune cell polarization.
RORγt inhibitors were prepared as a 100 uM solution in 1% DMSO/OD. […] of the prepared topical solution was applied to sRICA wells prepared for topical drug evaluation. Drugs were allowed to penetrate the skin overnight, for up to 24 hours prior to Th17 activation. Media was collected 24 hours after Th17 activation for IL17A protein assessment. IL17A protein was evaluated using the Quanterix IL17A detection kit on the SiMoA platform (via CRO Translational Biosciences). There was significant upregulation of IL17A with Th17 activation. Each study was normalized to the % max of IL17A production (i.e. the average IL17A concentration of Th17 activated skin alone) was set to 100%, all other values (untreated no activation and treated samples) were obtained as a percentage of this. […]

Question: With `COCc1ccc2c(c1)CCN(C(=O)Cc1cc(O)no1)[C@H]2C(=O)Nc1cc(F)c2c(c1)CCC2(C)C` [(1R)-N-(7-fluoro-1,1-dimethyl-2,3-dihydro-1H-inden-5-yl)-2-((3-hydroxy-1,2-oxazol-5-yl)acetyl)-6-(methoxymethyl)-1,2,3,4-tetrahydroisoquinoline-1-carboxamide] as the compound, how does the inhibition at 100 µM read?
Answer: 50.5%

Question: Which inhibition at 100 µM does the source give for `CC(C)n1c(=O)n(CC2CC2)c(=O)c2cc(NC(=O)N3CCC[C@@H](NC(=O)c4ccccc4)C3)ccc21` [(3R)-3-(benzoylamino)-N-(3-(cyclopropylmethyl)-1-isopropyl-2,4-dioxo-1,2,3,4-tetrahydroquinazolin-6-yl)piperidine-1-carboxamide] here?
Answer: 53.2%

Question: `COc1ccc2c(c1)CCN(C(=O)c1cc(O)no1)[C@H]2C(=O)Nc1ccc(C(C)(C)C)c(F)c1` (stereo in doubt) [N-(4-tert-butyl-3-fluorophenyl)-2-((3-hydroxy-1,2-oxazol-5-yl)carbonyl)-6-methoxy-1,2,3,4-tetrahydroisoquinoline-1-carboxamide] was tested. Which inhibition at 100 µM did it give?
Answer: 36%

Question: How did the inhibition at 100 µM turn out when `CCOCC(C)(C)c1c(F)cc(NC(=O)[C@H]2c3ccc(OC)cc3CCN2C(=O)c2cc(O)no2)cc1F` [(1R)-N-(4-(1-ethoxy-2-methylpropan-2-yl)-3,5-difluorophenyl)-2-((3-hydroxy-1,2-oxazol-5-yl)carbonyl)-6-methoxy-1,2,3,4-tetrahydro-isoquinoline-1-carboxamide] was run?
Answer: 56.1%

Question: `COCC(C)(C)c1ccc(NC(=O)[C@H]2c3ccc(OC)cc3CCN2C(=O)c2cc(O)no2)cc1F` [(1R)-N-(3-fluoro-4-(1-methoxy-2-methylpropan-2-yl)phenyl)-2-((3-hydroxy-1,2-oxazol-5-yl)carbonyl)-6-methoxy-1,2,3,4-tetrahydroisoquinoline-1-carboxamide] was tested. Which inhibition at 100 µM did it give?
Answer: 55%

Question: `COCc1ccc2c(c1)CCN(C(=O)Cc1cc(O)no1)[C@H]2C(=O)Nc1ccc(C(C)(C)C)c(F)c1` [(1R)-N-(4-tert-butyl-3-fluorophenyl)-2-((3-hydroxy-1,2-oxazol-5-yl)acetyl)-6-methoxymethyl-1,2,3,4-tetrahydroisoquinoline-1-carboxamide] was tested. Which inhibition at 100 µM did it give?
Answer: 60.8%

Question: How did the inhibition at 100 µM turn out when `COc1ccc2c(c1)CCN(C(=O)Cc1cc(O)no1)[C@H]2C(=O)Nc1cc(F)c(C(C)(C)COCC(F)F)c(F)c1` [(1R)-N-(4-(1-(2,2-difluoroethoxy)-2-methylpropan-2-yl)-3,5-difluorophenyl)-2-((3-hydroxy-1,2-oxazol-5-yl)acetyl)-6-methoxy-1,2,3,4-tetrahydro-isoquinoline-1-carboxamide] was run?
Answer: 39.3%

Question: With `COc1ccc2c(c1)CCN(C(=O)c1cc(O)no1)[C@H]2C(=O)Nc1cc(F)c(C(C)(C)COCC(F)F)c(F)c1` [(1R)-N-(4-(1-(2,2-difluoroethoxy)-2-methylpropan-2-yl)-3,5-difluorophenyl)-2-((3-hydroxy-1,2-oxazol-5-yl)carbonyl)-6-methoxy-1,2,3,4-tetarhydroisoquinoline-1-carboxamide] as the compound, how does the inhibition at 100 µM read?
Answer: 30.3%

Question: With `CCOCC(C)(C)c1c(F)cc(NC(=O)[C@H]2c3ccc(OC)cc3CCN2C(=O)Cc2cc(O)no2)cc1F` [(1R)-N-(4-(1-ethoxy-2-methylpropan-2-yl)-3,5-difluorophenyl)-2-((3-hydroxy-1,2-oxazol-5-yl)acetyl)-6-methoxy-1,2,3,4-tetrahydro-isoquinoline-1-carboxamide] as the compound, how does the inhibition at 100 µM read?
Answer: 54.9%

Question: How did the “Activity in sRICA (% inhibition of IL17A)” value turn out when `Cn1ncc2cc([C@@H](NC(=O)[C@@H]3CNC(=O)C3)C(=O)Nc3ccc([Si](C)(C)C)c(F)c3)ccc21` [drawing 89, (3S)-N-(2-((3-fluoro-4-(trimethylsilyl)phenyl)amino)-1-(1-methyl-1H-indazol-5-yl)-2-oxoethyl)-5-oxopyrrolidine-3-carboxamide] was run?
Answer: 36.72%

Same assay, conditions: Homo sapiens, 24 h, 100 uM solution in 1% DMSO/OD applied topically to human skin; media collected 24 hours after Th17 activation

Question: For `COc1ccc([C@@H](NC(=O)[C@H]2CNC(=O)C2)C(=O)Nc2ccc([Si](C)(C)C)c(F)c2)cc1` [(3R)-N-((1R)-2-((3-fluoro-4-(trimethylsilyl)phenyl)amino)-1-(4-(methoxy)phenyl)-2-oxoethyl)-5-oxopyrrolidine-3-carboxamide], which inhibition at 100 µM is on record?
Answer: 65.2%

Question: `COc1ccc([C@H](C(=O)Nc2cc(F)c([Si](C)(C)C)cc2F)N(C)C(=O)c2cc(O)no2)cc1` [N-((1R)-2-((2,5-difluoro-4-(trimethylsilyl)phenyl)amino)-1-(4-methoxyphenyl)-2-oxoethyl)-3-hydroxy-N-methyl-1,2-oxazole-5-carboxamide] was tested. Which inhibition at 100 µM did it give?
Answer: 18.2%

Question: Which inhibition at 100 µM does the source give for `COCc1ccc2c(n1)CCN(C(=O)c1cc(O)no1)[C@H]2C(=O)Nc1cc(F)c([Si](C)(C)C)c(F)c1` [(5R)-N-(3,5-difluoro-4-(trimethylsilyl)phenyl)-6-((3-hydroxy-1,2-oxazol-5-yl)carbonyl)-2-(methoxymethyl)-5,6,7,8-tetrahydro-1,6-naphthyridine-5-carboxamide] here?
Answer: -15.5%

Question: `CN(C(=O)c1cc(O)no1)[C@@H](C(=O)Nc1cc(F)c([Si](C)(C)C)c(F)c1)C1CCOCC1` (stereo in doubt) [N-(2-((3,5-difluoro-4-(trimethylsilyl)phenyl)amino)-2-oxo-1-(tetrahydro-2H-pyran-4-yl)ethyl)-3-hydroxy-N-methyl-1,2-oxazole-5-carboxamide] was tested. Which inhibition at 100 µM did it give?
Answer: 82.5%

Question: `CCn1c(=O)n(CCCOC)c(=O)c2cc(NC(=O)CC(C)CC(=O)Nc3ccc(C#N)c(Cl)c3)ccc21` (centres unmarked) [N-(3-chloro-4-cyanophenyl)-N′-(1-ethyl-3-(3-methoxypropyl)-2,4-dioxo-1,2,3,4-tetrahydroquinazolin-6-yl)-3-methylpentanediamide] was tested. Which inhibition at 100 µM did it give?
Answer: 60.8%

Question: `COc1ccc2c(c1)CCN(C(=O)c1cc(O)no1)[C@H]2C(=O)Nc1ccc([Si](C)(C)C)c(F)c1` (stereo in doubt) [N-(3-fluoro-4-(trimethylsilyl)phenyl)-2-((3-hydroxy-1,2-oxazol-5-yl)carbonyl)-6-methoxy-1,2,3,4-tetrahydroisoquinoline-1-carboxamide] was tested. Which inhibition at 100 µM did it give?
Answer: 7.69%

Question: Which inhibition at 100 µM does the source give for `COCc1ccc([C@@H](NC(=O)CCCC(=O)O)C(=O)Nc2cc(F)c([Si](C)(C)C)c(F)c2)cc1` [5-(((1R)-2-((3,5-difluoro-4-(trimethylsilyl)phenyl)amino)-1-(4-(methoxymethyl)phenyl)-2-oxoethyl)amino)-5-oxopentanoic acid] here?
Answer: 26.7%

Question: With `COc1ccc2c(c1)CCN(C(=O)CCCC(=O)O)[C@H]2C(=O)Nc1cc(F)c([Si](C)(C)C)c(F)c1` [5-((1R)-1-((3,5-difluoro-4-(trimethylsilyl)phenyl)carbamoyl)-6-methoxy-3,4-dihydroisoquinolin-2(1H)-yl)-5-oxopentanoic acid] as the compound, how does the inhibition at 100 µM read?
Answer: 76.6%

Question: Which inhibition at 100 µM does the source give for `COCc1ccc([C@@H](NC(=O)Cn2cnccc2=O)C(=O)Nc2cc(F)c([Si](C)(C)C)c(F)c2)cc1` [(2R)-N-(3,5-difluoro-4-(trimethylsilyl)phenyl)-2-(4-(methoxymethyl)phenyl)-2-(((6-oxopyrimidin-1(6H)-yl)acetyl)amino)acetamide] here?
Answer: 80%

Question: How did the inhibition at 100 µM turn out when `COCc1ccc([C@@H](NC(=O)CN2C(=O)CNC2=O)C(=O)Nc2ccc([Si](C)(C)C)c(F)c2)cc1` [(2R)-2-(((2,5-dioxoimidazolidin-1-yl)acetyl)amino)-N-(3-fluoro-4-(trimethylsilyl)phenyl)-2-(4-(methoxymethyl)phenyl)acetamide] was run?
Answer: 36.3%

Question: Which inhibition at 100 µM does the source give for `COCc1ccc([C@@H](NC(=O)Cc2cc(O)no2)C(=O)Nc2cc(F)c([Si](C)(C)C)c(F)c2)cc1` [(2R)-N-(3,5-difluoro-4-(trimethylsilyl)phenyl)-2-(((3-hydroxy-1,2-oxazol-5-yl)acetyl)amino)-2-(4-(methoxymethyl)phenyl)acetamide] here?
Answer: 53.9%

Question: Which inhibition at 100 µM does the source give for `COCc1ccc([C@@H](NC(=O)C2CNC(=O)C2)C(=O)Nc2ccc([Si](C)(C)C)c(F)c2)cc1` (stereo in doubt) [(3R)-N-((1R)-2-((3-fluoro-4-(trimethylsilyl)phenyl)amino)-1-(4-(methoxymethyl)phenyl)-2-oxoethyl)-5-oxopyrrolidine-3-carboxamide] here?
Answer: 75.7%

Question: `COc1ccc(C(NC(=O)C2CNC(=O)C2)C(=O)Nc2ccc([Si](C)(C)C)c(F)c2)cc1` (centres unmarked) [N-(2-((3-fluoro-4-(trimethylsilyl)phenyl)amino)-1-(4-methoxyphenyl)-2-oxoethyl)-5-oxopyrrolidine-3-carboxamide] was tested. Which inhibition at 100 µM did it give?
Answer: 65.8%

Question: How did the inhibition at 100 µM turn out when `COc1ccc2c(c1)CCN(C(=O)Cc1cc(O)no1)[C@H]2C(=O)Nc1ccc([Si](C)(C)C)c(C#N)c1` [(1R)-N-(3-cyano-4-(trimethylsilyl)phenyl)-2-((3-hydroxy-1,2-oxazol-5-yl)acetyl)-6-methoxy-1,2,3,4-tetrahydroisoquinoline-1-carboxamide] was run?
Answer: 42.8%

Question: How did the inhibition at 100 µM turn out when `COc1ccc2c(c1)CCN(C(=O)Cc1cc(O)no1)[C@H]2C(=O)Nc1ccc([Si](C)(C)C)c(F)c1` [(1R)-N-(3-fluoro-4-(trimethylsilyl)phenyl)-2-((3-hydroxy-1,2-oxazol-5-yl)acetyl)-6-methoxy-1,2,3,4-tetrahydroisoquinoline-1-carboxamide] was run?
Answer: 31.2%

Question: How did the inhibition at 100 µM turn out when `COc1ccc2c(n1)CCN(C(=O)Cc1cc(O)no1)[C@H]2C(=O)Nc1ccc([Si](C)(C)C)c(F)c1` [(5R)-N-(3-fluoro-4-(trimethylsilyl)phenyl)-6-((3-hydroxy-1,2-oxazol-5-yl)acetyl)-2-methoxy-5,6,7,8-tetrahydro-1,6-naphthyridine-5-carboxamide] was run?
Answer: 22.2%
